In patent US11433042B2, “Methods and compositions for treating metabolic disorders” (Joslin Diabetes Center, Inc., priority 2017, dated 2022):

Tests used:
Ephx2 = Ephx2 gene expression by qPCR after CL316,243 treatment; type: in vivo; conditions: mice, daily 1 mg/kg intraperitoneally for 10 days
Procedure: (§1) Total RNA was extracted from tissue with Trizol and purified using a spin column kit (Zymo Research). RNA (500 ng-1 μg) was reverse transcribed with a high-capacity complementary DNA (cDNA) reverse transcription kit (Applied Biosystems). Real-time PCR was performed in mouse tissues starting with 10 ng of cDNA and forward and reverse oligonucleotide primers (300 nM each) in a final volume of 10 μl with SYBR green PCR Master Mix (Roche). Fluorescence was determined and analyzed in an ABI Prism 7900 sequence detection system (Applied Biosystems). Acidic ribosomal phosphoprotein P0 (ARBP) expression was used to normalize gene expression.

Ephx1 = Ephx1 gene expression by qPCR after CL316,243 treatment; type: in vivo; conditions: mice, daily 1 mg/kg intraperitoneally for 10 days
Procedure: as §1

[1] = Acute BAT activation, serum 12,13-diHOME by LC-MS/MS; type: in vivo; conditions: mice treated for 30 minutes
Procedure: All lipid standards were purchased from Cayman Chemical Company, Avanti Polar Lipids, or Santa Cruz Biotechnology, Inc. C18SPE cartridges were purchased from Biotage. All solvents are of HPLC or LC-MS/MS grade and were acquired from Sigma-Aldrich, Fisher Scientific, or VWR International. Tissue samples were homogenized in 0.1×PBS in Omni homogenizing tubes with ceramic beads at 4° C. Aliquots of 100 μL serum or 1 mg protein of homogenized tissue (measured by BCA) were taken, depending on the experiment. A mixture of deuterium-labeled internal standards was added to each aliquot, followed by 3× volume of sample of cold methanol (MeOH). Samples were vortexed for 5 min and stored at -20° C. overnight. Cold samples were centrifuged at 14,000 g for 10 min, and the supernatant was then transferred to a new tube and 3 mL of acidified H2O (pH 3.5) was added to each sample prior to C18 SPE and performed as previously described (Powell, W. S., Methods Mol Biol. 120, 11-24 (1999)). The methyl formate fractions were collected, dried under nitrogen, and reconstituted in 50 μL MeOH:H2O (1:1, by vol). […] The identity of a component was confirmed using PeakView® software (SCIEX), and quantification was performed using MultiQuantTM software (SCIEX). The quantification of 12,13-diHOME was performed against a standard calibration curve built with 5 points ranging from 0.01 pg/μL to 100 pg/μL. […]

mature brown adipocytes = test: In vitro fatty acid uptake (FFA-SS-Luc) in brown adipocytes constitutively expressing luciferase; type: cell-based, mice; conditions: data not shown
Procedure: Stromal vascular cells were isolated from interscapular brown adipose tissue dissected from TgLuc mice (Stock no. 008450) obtained from The Jackson Laboratory. Cells were immortalized and differentiated into adipocytes in vitro according to the WT-1 protocol (Tseng, Y. H. et al., Mol. Cell Biol. 24, 1918-1929 (2004)). After 1 hour of serum starvation, mature adipocytes were treated with 1 μM 12,13-diHOME or methyl acetate vehicle in 0.1% w/v BSA in PBS for 15 minutes. After this treatment, cells were incubated with 10 μm FFA-SS-Luc (Intrace Medical) and imaged using the IVIS Spectrum CT using sequential 30 s exposures for 1 hour. Data was analyzed using Living Image Software and movies were assembled from individual images using ImageJ. All cultures were confirmed to be Mycoplasma free.

With `C[C@H](Cc1ccc2c(c1)OC(C(=O)[O-])(C(=O)[O-])O2)NC[C@H](O)c1cccc(Cl)c1.[Na+].[Na+]` [CL316,243] the “Ephx2 expression in BAT” value (Ephx2) was “increased” and the “Ephx1 expression in sWAT” value (Ephx1) was “increased”.

With `NC[C@H](O)c1ccc(O)c(O)c1` [NE, Norepinephrine, reference compound] the “12,13-diHOME production (serum concentration)” value [1] was “induced” and the “effect of NE treatment added to 12,13-diHOME on FFA-SS-Luc uptake in vitro” value (mature brown adipocytes) was “no additive effect”.
